Results: paper PMC12652692, “Synthesis and In Vitro Anticancer Evaluation of Novel Phosphonium Derivatives of Chrysin” (International Journal of Molecular Sciences, 2025)

Legend:
Assay in all cases: NCI60 five-dose screen
Assay type in all cases: cell-based
[1] = system: NCI-H226; conditions: Homo sapiens; NCI-H226, Non-small-Cell Lung Cancer
Experimental: (§1) Since all new conjugates (3a–h) had notable antiproliferative activities on several tumor cell lines in the course of the one-dose screening, they were subjected to a five-dose test. […] J. Mol. Sci. 2025, 26, 11063 10 of 10 S.3. NCI60 Screening A detailed description of the NCI screening procedures can also be found on the website of NCI [39], and in our previous work. S.3.1. One-Dose Screen All candidates were examined at first at a single high dose (10 μM) in the full NCI60 cell panel. The value reported for the one-dose test is growth relative to the no-drug control and relative to the time zero number of cells. This made possible the disclosure of both growth inhibition (numbers between 0 and 100) and lethality (numbers less than 0). For example, a value of 100 means no growth inhibition. A value of 20 would mean 80% growth inhibition. A value of 0 means no net growth over the course of the analysis. A value of −20 would mean 20% lethality. A value of −100 means all cells are dead. S.3.2. […] The human tumor cell lines of the cancer screening panel were grown in RPMI 1640 medium containing 5% fetal bovine serum and 2 mM l-glutamine. Characteristically, cells were injected in 96-well microtiter plates in 0.1 mL at plating densities ranging from 5000 to 40,000 cells/well, depending on the doubling time of individual cell lines. After cell inoculation, the microtiter plates were incubated at 37 °C, 5% carbon dioxide, 95% air, and 100% relative humidity for 24 hours before the addition of tested compounds. After 24 hours, 2 plates of each cell line were fixed in situ with Cl3COOH (TCA), to represent a measurement of the cell population for each cell line at the time of drug addition (tz). Tested compounds were solubilized in DMSO at 400-fold the desired final maximum test concentration and stored frozen before application. In the course of the drug addition, an aliquot of frozen concentrate was thawed and diluted to twice the desired final maximum test concentration with a complete medium containing 50 μg mL−1 gentamicin. Additional four, 10-fold or ½ log serial dilutions were produced to furnish a total of five drug concentrations plus control. Aliquots of 0.1 mL of these different drug dilutions were added to the appropriate microtiter wells already containing 0.1 mL of medium, resulting in the required final drug concentrations. Following drug addition, the plates were incubated at 37 °C, 5% carbon dioxide, 95% air, and 100% relative humidity for an additional 48 hours. For adherent cells, the test was finished by the addition of cold Cl3COOH. Cells were fixed in situ by the addition of 50 μL of cold 50% (w/v) Cl3COOH, and incubated at 4 °C for 1 hour. The supernatant was discarded, and the plates were washed with H2O (5×) and dried in air. Sulforhodamine B (SRB) solution (0.1 mL) at 0.4% (w/v) in 1% CH3COOH was added to each well, and plates were incubated at RT for 10 min. After staining, the unbound dye was removed by washing five times with 1% CH3COOH, and the plates were dried in the air. The bound stain is afterward solubilized with a 10 mM trizma base, and the absorbance is read on an automated plate reader at λ = 515 nm. Utilizing the seven absorbance measurements [time zero (tz), control growth (c), and test growth in the presence of the drug at the five concentration levels (ti)], the percentage growth was determined at each of the drug concentration levels. Growth inhibition (%) was calculated as: [(ti − tz)/(c − tz)] × 100, for concentrations where ti ≥ tz (1) [(ti − tz)/(tz)] × 100, for concentrations where ti < tz. (2) Three dose‒response parameters were calculated as follows. GI50 (growth inhibition of 50%) was determined from Equation (3), which is the drug concentration resulting in a 50% reduction in the net protein increase (as measured by SRB staining) in control cells in the course of the drug incubation. [(ti − tz)/(c − tz)] × 100 = 50 (3)

[2] = system: HS 578T; conditions: Homo sapiens, Breast Cancer
Experimental: as §1

[3] = system: LOX IMVI; conditions: Homo sapiens, Melanoma
Experimental: as §1

[4] = system: SF-268; conditions: Homo sapiens; SF-268, CNS Cancer
Experimental: as §1

[5] = system: IGROV1; conditions: Homo sapiens, IGROV-1; IGROV1, Ovarian Cancer
Experimental: as §1

[6] = system: MALME-3M; conditions: Homo sapiens, Melanoma
Experimental: as §1

[7] = system: 786-0; conditions: Homo sapiens; 786-0, Renal Cancer
Experimental: as §1

[8] = system: HOP-62; conditions: Homo sapiens; HOP-62, Non-small-Cell Lung Cancer
Experimental: as §1

[9] = system: SF-539; conditions: Homo sapiens; SF-539, CNS Cancer
Experimental: as §1

[10] = system: T-47D; conditions: Homo sapiens, T47D, Breast Cancer
Experimental: as §1

[11] = system: TK-10; conditions: Homo sapiens; TK-10, Renal Cancer
Experimental: as §1

[12] = system: UACC-257; conditions: Homo sapiens; UACC-257, Melanoma
Experimental: as §1

[13] = system: KM12; conditions: Homo sapiens; KM12, Colon Cancer
Experimental: as §1

[14] = system: A498; conditions: Homo sapiens; A498, Renal Cancer
Experimental: as §1

[15] = system: HT29; conditions: Homo sapiens, HT-29; HT29, Colon Cancer
Experimental: as §1

[16] = system: SK-MEL-28; conditions: Homo sapiens; SK-MEL-28, Melanoma
Experimental: as §1

[17] = system: HCT-15; conditions: Homo sapiens; HCT-15, Colon Cancer
Experimental: as §1

[18] = system: NCI-H322M; conditions: Homo sapiens, Non-small-Cell Lung Cancer
Experimental: as §1

[19] = system: CCRF-CEM; conditions: Homo sapiens, Leukemia
Experimental: as §1

[20] = system: UACC-62; conditions: Homo sapiens; UACC-62, Melanoma
Experimental: as §1

[21] = system: OVCAR-4; conditions: Homo sapiens; OVCAR-4, Ovarian Cancer
Experimental: as §1

[22] = system: HCC-2998; conditions: Homo sapiens; HCC-2998, Colon Cancer
Experimental: as §1

Structure (SMILES) | GI50 [1] | GI50 [2] | GI50 [3] | GI50 [4] | GI50 [5] | GI50 [6] | GI50 [7] | GI50 [8] | GI50 [9] | GI50 [10] | GI50 [11] | GI50 [12] | GI50 [13] | GI50 [14] | GI50 [15] | GI50 [16] | GI50 [17] | GI50 [18] | GI50 [19] | GI50 [20] | other results
O=c1cc(-c2ccccc2)oc2cc(OCCCC[P+](c3ccccc3)(c3ccccc3)c3ccccc3)cc(O)c12 [3a] | 354 nM | 306 nM | 326 nM | 380 nM | 405 nM | 270 nM | 553 nM | 480 nM | 380 nM | 228 nM | 464 nM | 282 nM | 401 nM | 422 nM | 1280 nM | 474 nM | 628 nM | 976 nM | 335 nM | 292 nM | GI50 [21]: 370 nM; GI50 [22]: 345 nM
Cc1ccc([P+](CCCCOc2cc(O)c3c(=O)cc(-c4ccccc4)oc3c2)(c2ccc(C)cc2)c2ccc(C)cc2)cc1 [3b] | 277 nM | 366 nM | 287 nM | 285 nM | 416 nM | 381 nM | 373 nM | 307 nM | 498 nM | 105 nM | 313 nM | 367 nM | 160 nM | 400 nM | 855 nM | 514 nM | 311 nM | 532 nM | 324 nM | 344 nM | GI50 [21]: 247 nM; GI50 [22]: 380 nM
COc1ccc([P+](CCCCOc2cc(O)c3c(=O)cc(-c4ccccc4)oc3c2)(c2ccc(OC)cc2)c2ccc(OC)cc2)cc1 [3c] | 606 nM | 332 nM | 355 nM | 351 nM | 413 nM | 287 nM | 1210 nM | 732 nM | 410 nM | 302 nM | 1090 nM | 277 nM | 207 nM | 1570 nM | 1250 nM | 453 nM | 1550 nM | 1420 nM | 367 nM | 317 nM | GI50 [21]: 382 nM; GI50 [22]: 300 nM
O=c1cc(-c2ccccc2)oc2cc(OCCCC[P+](c3ccc(F)cc3)(c3ccc(F)cc3)c3ccc(F)cc3)cc(O)c12 [3d] | 1820 nM | 1980 nM | 1690 nM | 1570 nM | 1890 nM | 2040 nM | 1830 nM | 1560 nM | 1930 nM | 1450 nM | 1740 nM | 1660 nM | 1700 nM | 2070 nM | 1840 nM | 1690 nM | 1850 nM | 1990 nM | 2310 nM | 2050 nM | GI50 [21]: 1640 nM; GI50 [22]: 1670 nM
O=c1cc(-c2ccccc2)oc2cc(OCCCC[P+](C3CCCCC3)(C3CCCCC3)C3CCCCC3)cc(O)c12 [3e] | 1100 nM | 838 nM | 938 nM | 1040 nM | 774 nM | 397 nM | 1570 nM | 1560 nM | 751 nM | 397 nM | 1430 nM | 267 nM | 382 nM | 1690 nM | 1770 nM | 423 nM | 1550 nM | 1580 nM | 477 nM | 368 nM | GI50 [21]: 686 nM; GI50 [22]: 504 nM
COc1c(C)cc([P+](CCCCOc2cc(O)c3c(=O)cc(-c4ccccc4)oc3c2)(c2cc(C)c(OC)c(C)c2)c2cc(C)c(OC)c(C)c2)cc1C [3f] | 249 nM | 361 nM | 284 nM | 525 nM | 346 nM | 310 nM | 338 nM | 311 nM | 367 nM | 121 nM | 427 nM | 298 nM | 195 nM | 367 nM | 646 nM | 491 nM | 345 nM | 432 nM | 103 nM | 312 nM | GI50 [21]: 351 nM; GI50 [22]: 297 nM
Cc1ccccc1[P+](CCCCOc1cc(O)c2c(=O)cc(-c3ccccc3)oc2c1)(c1ccccc1C)c1ccccc1C [3g] | 399 nM | 232 nM | 170 nM | 279 nM | 428 nM | 353 nM | 291 nM | 332 nM | 187 nM | 208 nM | 414 nM | 261 nM | 280 nM | 462 nM | 1220 nM | 323 nM | 1410 nM | 1380 nM | 242 nM | 319 nM | GI50 [21]: 429 nM; GI50 [22]: 239 nM
O=c1cc(-c2ccccc2)oc2cc(OCCCC[P+](c3ccccc3)(c3ccccc3)c3ccccn3)cc(O)c12 [3h] | 1560 nM | 1130 nM | 694 nM | 760 nM | 653 nM | 594 nM | 1570 nM | 1520 nM | 1060 nM | 259 nM | 1690 nM | 298 nM | 523 nM | 1730 nM | 1750 nM | 570 nM | 1580 nM | 2040 nM | 334 nM | 549 nM | GI50 [21]: 1140 nM; GI50 [22]: 445 nM
